A value given as a limit tells only on which side of the number the result lay.

For experiment [1], the target named is T1, PRMT5 (Homo sapiens, UniProt O14744).
T1 construct: purchased Viva (custom protein)
Nature of the experiment: PRMT5 biochemical IC50 assay with SAM as cofactor. As to conditions: PRMT5, SAM as cofactor; read-out: SAM IC50.

Experiment [2] has as its target T1, PRMT5. The experiment is described as follows: PRMT5 biochemical IC50 assay with no cofactor. Particulars: PRMT5, no cofactor; read-out: No Cofactor/rel IC50. From the text: Table 1 indicates IC50 values (μM) against PRMT5 for exemplary compounds in the presence of SAM as cofactor, with no cofactor, and with MTA as cofactor, respectively (columns 4-6). […] Ki values can be calculated from the IC50 values as described in the Examples section. As detailed in the Examples section, for the assay performed in the presence of SAM, IC50=Ki×1.5 (Ki=IC50/1.5).

Experiment [3] deals with T1, PRMT5. Nature of the experiment: PRMT5 biochemical IC50 assay with MTA as cofactor. As to conditions: PRMT5, MTA as cofactor; read-out: MTA IC50.
Experiment [4] has as its system HAP1 MTAP-intact cell line. Nature of the experiment: SDMA in-cell western assay, HAP1 MTAP-intact. It counts as cell-based. Particulars: Homo sapiens, HAP1, SDMA in-cell western, HAP1 MTAP-intact; read-out: MTAP HAP1 intact IC50. In a few lines:
(§1)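 Compounds were tested in HAP1 cells differing only in MTAP status (endogenous expression versus null). Cellular SDMA levels were then measured by in-cell western, giving an IC50 in each background.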

Experiment [5] deals with HAP1 MTAP-deleted cell line. Nature of the experiment: SDMA in-cell western assay, HAP1 MTAP-deleted. The format is cell-based. Particulars: for IC50: Homo sapiens, HAP1, SDMA in-cell western, HAP1 MTAP-deleted, read-out: HAP 1 MTAP deleted IC50; for MTAP intact/deleted ratio: IC50 ratio HAP1 MTAP-intact / HAP1 MTAP-deleted, SDMA in-cell western. In outline: as §1
Experiment [6] concerns HAP1 MTAP-deleted cell line. Nature of the experiment: Viability assay, MTAP-deleted cell line. The format is cell-based. Particulars: Homo sapiens, HAP1, viability assay, MTAP-deleted cell line; read-out: HAP1 MTAP deleted viability. An excerpt: Table 1 additionally indicates IC50 values in a viability assay for the MTAP-deleted cell line (column 10), indicating the effect of treatment with compound on cell survival.

T1 sequence (O14744 whole entry): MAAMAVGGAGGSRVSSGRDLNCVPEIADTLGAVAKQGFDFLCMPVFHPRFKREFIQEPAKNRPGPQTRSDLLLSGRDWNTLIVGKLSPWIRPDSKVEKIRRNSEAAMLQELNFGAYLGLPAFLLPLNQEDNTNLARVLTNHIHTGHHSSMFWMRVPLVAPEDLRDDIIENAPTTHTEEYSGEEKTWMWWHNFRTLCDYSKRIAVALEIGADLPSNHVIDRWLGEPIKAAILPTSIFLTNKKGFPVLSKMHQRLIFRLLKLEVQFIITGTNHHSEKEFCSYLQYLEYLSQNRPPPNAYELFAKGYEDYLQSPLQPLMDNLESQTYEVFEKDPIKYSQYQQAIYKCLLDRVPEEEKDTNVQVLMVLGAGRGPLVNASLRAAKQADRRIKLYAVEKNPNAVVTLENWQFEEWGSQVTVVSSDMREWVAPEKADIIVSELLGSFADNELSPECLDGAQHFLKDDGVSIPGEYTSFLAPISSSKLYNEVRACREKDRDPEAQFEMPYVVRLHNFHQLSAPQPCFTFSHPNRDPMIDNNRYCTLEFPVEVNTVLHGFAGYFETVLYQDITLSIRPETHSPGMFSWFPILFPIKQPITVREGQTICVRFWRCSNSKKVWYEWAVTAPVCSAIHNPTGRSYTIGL
T1 sequence (Q9BQA1 whole entry partner): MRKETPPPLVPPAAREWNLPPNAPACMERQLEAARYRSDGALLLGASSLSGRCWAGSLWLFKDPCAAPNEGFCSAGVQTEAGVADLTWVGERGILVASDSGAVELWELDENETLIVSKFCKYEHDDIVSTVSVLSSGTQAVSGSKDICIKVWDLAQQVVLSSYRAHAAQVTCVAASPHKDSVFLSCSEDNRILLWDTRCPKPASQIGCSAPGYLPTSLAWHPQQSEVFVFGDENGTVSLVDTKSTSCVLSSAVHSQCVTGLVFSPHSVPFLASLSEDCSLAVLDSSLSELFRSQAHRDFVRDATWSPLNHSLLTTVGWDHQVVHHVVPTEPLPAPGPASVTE

Turning to `CCc1cc(NC(=O)C(=O)N2C[C@@H](C)CC[C@@H]2c2ccc3sc(NC)nc3c2)cnc1N` (single isomer, unassigned) [Compound 884], the IC50 at PRMT5 [1] was 50 to 500 nM; on PRMT5 [2] it was below 50 nM; at PRMT5 [3], below 50 nM; in experiment [4], 100 to 1000 nM; in experiment [5], below 100 nM; in experiment [6], below 1000 nM. For the same compound, in experiment [5], the MTAP intact/deleted ratio entry was “A (an IC50 ratio greater than or equal to 10 fold)”.
Turning to `Cc1cc(NC(=O)C(=O)N2C[C@@H](C)CC[C@@H]2c2ccc(-c3cncs3)cc2)cnc1N` (single isomer, unassigned) [Compound 887, N-(6-amino-5-methylpyridin-3-yl)-2-(5-methyl-2-(4-(thiazol-5-yl)phenyl)piperidin-1-yl)-2-oxoacetamide], the IC50 was 50 to 500 nM on PRMT5 [1]; 50 to 500 nM on PRMT5 [2]; below 50 nM on PRMT5 [3]; below 100 nM in experiment [4]; below 100 nM in experiment [5]; below 1000 nM in experiment [6]. Also, in experiment [5], the MTAP intact/deleted ratio entry is “B (an IC50 ratio greater than or equal to 3 fold but lower than 10 fold)”.
For `CCc1cc(NC(=O)C(=O)N2C[C@@H](C)CC[C@@H]2c2ccc(NC(C)=O)cc2)cnc1N` (single isomer, unassigned) [Compound 890], the IC50 is 50 to 500 nM at PRMT5 [1]; below 50 nM at PRMT5 [2]; below 50 nM on PRMT5 [3]; 100 to 1000 nM in experiment [4]; below 100 nM in experiment [5]; below 1000 nM in experiment [6]. Further, in experiment [5], the MTAP intact/deleted ratio result is reported as “A (an IC50 ratio greater than or equal to 10 fold)”.
Regarding `CCc1cc(NC(=O)C(=O)N2C[C@H](C)CC[C@H]2c2ccc(NC(C)=O)cc2)cnc1N` (single isomer, unassigned) [Compound 893], the IC50 on PRMT5 [1] was above 500 nM; at PRMT5 [2], above 500 nM; on PRMT5 [3] it was above 500 nM; in experiment [4], above 1000 nM; in experiment [5] it was above 1000 nM; in experiment [6], above 10000 nM. Moreover, the MTAP intact/deleted ratio entry in experiment [5] is listed as “B (an IC50 ratio greater than or equal to 3 fold but lower than 10 fold)”.
For `COc1ncc(NC(=O)C(=O)N2C[C@H](C)CC[C@H]2c2ccn(-c3cc[nH]n3)n2)cc1C(N)=O` (single isomer, unassigned) [Compound 894], the IC50 at PRMT5 [1] is 50 to 500 nM; on PRMT5 [2], 50 to 500 nM; at PRMT5 [3] it was below 50 nM; in experiment [4] it was above 1000 nM; in experiment [5], below 100 nM; in experiment [6] it was 1000 to 10000 nM. Moreover, the MTAP intact/deleted ratio result in experiment [5] was “A (an IC50 ratio greater than or equal to 10 fold)”.
For the compound `Cc1cc(NC(=O)C(=O)N2C[C@H](C)CC[C@H]2c2cccc(S(C)(=O)=O)c2)cnc1N` (single isomer, unassigned) [Compound 895], the IC50 was 50 to 500 nM on PRMT5 [1]; 50 to 500 nM at PRMT5 [2]; below 50 nM on PRMT5 [3]; 100 to 1000 nM in experiment [4]; below 100 nM in experiment [5]; 1000 to 10000 nM in experiment [6]. Besides, the MTAP intact/deleted ratio entry in experiment [5] is reported as “B (an IC50 ratio greater than or equal to 3 fold but lower than 10 fold)”.
Consider `CCc1cc(NC(=O)C(=O)N2C[C@H](C)CC[C@H]2c2ccc3sc(NC)nc3c2)cnc1N` (single isomer, unassigned) [Compound 896], for which the IC50 on PRMT5 [1] is above 500 nM; on PRMT5 [2] it was above 500 nM; on PRMT5 [3], above 500 nM; in experiment [4], above 1000 nM; in experiment [5], above 1000 nM; in experiment [6], above 10000 nM. In addition, the MTAP intact/deleted ratio entry in experiment [5] is “B (an IC50 ratio greater than or equal to 3 fold but lower than 10 fold)”.
For `C[C@H]1CC[C@H](c2cccc3[nH]ncc23)N(C(=O)C(=O)Nc2cncc(C(N)=O)c2)C1` (single isomer, unassigned) [Compound 897], the IC50 is 50 to 500 nM at PRMT5 [1]; 50 to 500 nM at PRMT5 [2]; below 50 nM at PRMT5 [3]; above 1000 nM in experiment [4]; below 100 nM in experiment [5]; 1000 to 10000 nM in experiment [6]. Further, the MTAP intact/deleted ratio entry in experiment [5] is reported as “A (an IC50 ratio greater than or equal to 10 fold)”.
Regarding `C[C@@H]1CC[C@@H](c2ccn(-c3cc[nH]n3)n2)N(C(=O)C(=O)Nc2cncc(C(N)=O)c2)C1` (single isomer, unassigned) [Compound 899], the IC50 on PRMT5 [1] is 50 to 500 nM; at PRMT5 [2] it was 50 to 500 nM; at PRMT5 [3], below 50 nM; in experiment [4], above 1000 nM; in experiment [5] it was 100 to 1000 nM; in experiment [6] it was 1000 to 10000 nM. For the same compound, the MTAP intact/deleted ratio entry in experiment [5] was “A (an IC50 ratio greater than or equal to 10 fold)”.
On to `Cc1cc(NC(=O)C(=O)N2C[C@H](C)CC[C@H]2c2ccc(-c3cncs3)cc2)cnc1N` (single isomer, unassigned) [Compound 900, N-(6-amino-5-methylpyridin-3-yl)-2-(5-methyl-2-(4-(thiazol-5-yl)phenyl)piperidin-1-yl)-2-oxoacetamide], for which the IC50 at PRMT5 [1] was above 500 nM; on PRMT5 [2], above 500 nM; at PRMT5 [3], above 500 nM; in experiment [4] it was above 1000 nM; in experiment [5], above 1000 nM; in experiment [6] it was above 10000 nM. In experiment [5], the MTAP intact/deleted ratio entry is reported as “C (an IC50 ratio of less than 3 fold)”.
Turning to `Cc1cc(NC(=O)C(=O)N2C[C@@H](C)CC[C@@H]2c2cccc(S(C)(=O)=O)c2)cnc1N` (single isomer, unassigned) [Compound 901], the IC50 at PRMT5 [1] was above 500 nM; at PRMT5 [2], above 500 nM; at PRMT5 [3] it was above 500 nM; in experiment [4] it was above 1000 nM; in experiment [5], above 1000 nM; in experiment [6], above 10000 nM. The MTAP intact/deleted ratio entry in experiment [5] is “C (an IC50 ratio of less than 3 fold)”.
Take `CCc1cc(NC(=O)C(=O)N2C[C@@H](C)CC[C@@H]2c2ccc(NS(C)(=O)=O)cc2)cnc1N` (single isomer, unassigned) [Compound 902]: the IC50 at PRMT5 [1] was 50 to 500 nM; on PRMT5 [2], below 50 nM; at PRMT5 [3], below 50 nM; in experiment [4], 100 to 1000 nM; in experiment [5], below 100 nM; in experiment [6] it was below 1000 nM. In addition, the MTAP intact/deleted ratio result in experiment [5] is “A (an IC50 ratio greater than or equal to 10 fold)”.
For the compound `Cc1ncc(NC(=O)C(=O)N2C[C@@H](C)CC[C@@H]2c2ccc3c(c2)CCC(=O)N3)cc1C(F)F` (single isomer, unassigned) [Compound 903], the IC50 was above 500 nM at PRMT5 [1]; above 500 nM at PRMT5 [2]; above 500 nM at PRMT5 [3]; above 1000 nM in experiment [4]; above 1000 nM in experiment [5]; above 10000 nM in experiment [6]. Also, in experiment [5], the MTAP intact/deleted ratio result is given as “B (an IC50 ratio greater than or equal to 3 fold but lower than 10 fold)”.
For the compound `COc1ncc(NC(=O)C(=O)N2C[C@@H](C)C(F)(F)C[C@@H]2c2ccc(C)nc2)cc1C(N)=O` (single isomer, unassigned) [Compound 908], the IC50 on PRMT5 [1] was 50 to 500 nM; at PRMT5 [2], 50 to 500 nM; on PRMT5 [3], below 50 nM; in experiment [4], above 1000 nM; in experiment [5] it was below 100 nM; in experiment [6], 1000 to 10000 nM. The MTAP intact/deleted ratio result in experiment [5] is “A (an IC50 ratio greater than or equal to 10 fold)”.
As to `COc1ncc(NC(=O)C(=O)N2C[C@@H](C)CC[C@@H]2c2ccc(NC(C)=O)nc2)cc1C(N)=O` (single isomer, unassigned) [Compound 910], the IC50 on PRMT5 [1] was above 500 nM; at PRMT5 [2], above 500 nM; on PRMT5 [3] it was above 500 nM; in experiment [4] it was above 1000 nM; in experiment [5], above 1000 nM; in experiment [6], above 10000 nM. Also, in experiment [5], the MTAP intact/deleted ratio entry is on record as “B (an IC50 ratio greater than or equal to 3 fold but lower than 10 fold)”.
With `CCc1cc(NC(=O)C(=O)N2C[C@@H](C)CC[C@@H]2c2ccn(-c3cc[nH]n3)n2)cnc1N` (single isomer, unassigned) [Compound 913], the IC50 on PRMT5 [1] was above 500 nM; on PRMT5 [2], above 500 nM; on PRMT5 [3], above 500 nM; in experiment [4], above 1000 nM; in experiment [5] it was above 1000 nM; in experiment [6], above 10000 nM. In experiment [5], the MTAP intact/deleted ratio entry was “C (an IC50 ratio of less than 3 fold)”.
In the case of `COc1ncc(NC(=O)C(=O)N2C[C@@H](C)CC[C@@H]2c2ccc3cnccc3c2)cc1C(N)=O` (single isomer, unassigned) [Compound 914], the IC50 at PRMT5 [1] is 50 to 500 nM; at PRMT5 [2] it was below 50 nM; at PRMT5 [3] it was below 50 nM; in experiment [4] it was 100 to 1000 nM; in experiment [5] it was below 100 nM; in experiment [6] it was below 1000 nM. In addition, the MTAP intact/deleted ratio entry in experiment [5] was “A (an IC50 ratio greater than or equal to 10 fold)”.

(Values after patent US11999727B2 (Tango Therapeutics, Inc., priority 2020, dated 2024).)
